Results as given in PubChem BioAssay AID1963967 (Molecular Pharmacology Branch, DTP, NCI, 2024).

Test system: 855422-203-R-J1-PDC spheroids with HUVEC/MSC, viability
Test: Anticancer human tumor 855422-203-R-J1-PDC patient-derived bladder carcinoma cell line growth inhibition [PI3K]
Conditions: for IC50: curve of first compound; for viability, T/C: stronger effect = lower value
Outline: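 Multi-cell spheroids combine tumor cells with HUVEC and human MSCs, treated with targeted agents alone or with inavolisib, alpelisib, duvelisib or copanlisib. Concentrations fall in half-log steps from at or near clinical Cmax, or from 10 microM where Cmax is unknown; viability read-out.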
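Further: agents incubated with spheroids for one week before read-out.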
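Wherever viability, T/C is given: 100% = DMSO vehicle-treated control wells.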

How did the IC50 (second compound 0.00316 µM) turn out when CC1(C)CCC(Nc2ncc(C(F)(F)F)c(-c3c[nH]c4c(P(C)(C)=O)c(C#N)ccc34)n2)CN1 (configuration not stated) + COc1c(OCCCN2CCOCC2)ccc2c3n(c(=NC(=O)c4cnc(N)nc4)nc12)CCN3 was run?
Its IC50 is under 31.6 nM.

What about the IC50 (second compound 0.01 µM) of the same molecule?
Its IC50 is under 31.6 nM.

What about the IC50 (second compound 0.0316 µM) of the same molecule?
The IC50 was under 31.6 nM.

And the IC50 (second compound 0.1 µM)?
Its IC50 is under 31.6 nM.

What about the IC50 (second compound 0.316 µM) of the same molecule?
Its IC50 is under 31.6 nM.

And the IC50 (second compound 1 µM)?
The IC50 was under 31.6 nM.

What about the viability, T/C (second compound 0.00316 µM, first compound 0.0316 µM) of the same molecule?
Its viability, T/C is 24.9%.

And the viability, T/C (second compound 0.00316 µM, first compound 0.1 µM)?
Its viability, T/C is 20.8%.

And the viability, T/C (second compound 0.00316 µM, first compound 0.316 µM)?
The viability, T/C was 22.4%.

And the viability, T/C (second compound 0.00316 µM, first compound 1 µM)?
Its viability, T/C is 23.3%.

What about the viability, T/C (second compound 0.00316 µM, first compound 3.16 µM) of the same molecule?
The viability, T/C was 24.3%.

What about the viability, T/C (second compound 0.00316 µM, first compound 10 µM) of the same molecule?
Its viability, T/C is 2.48%.

What about the viability, T/C (second compound 0.01 µM, first compound 0.0316 µM) of the same molecule?
Its viability, T/C is 21.2%.

What about the viability, T/C (second compound 0.01 µM, first compound 0.1 µM) of the same molecule?
Its viability, T/C is 18.6%.

And the viability, T/C (second compound 0.01 µM, first compound 0.316 µM)?
The viability, T/C was 21.3%.

And the viability, T/C (second compound 0.01 µM, first compound 1 µM)?
The viability, T/C was 19.8%.

And the viability, T/C (second compound 0.01 µM, first compound 3.16 µM)?
The viability, T/C was 20.4%.

And the viability, T/C (second compound 0.01 µM, first compound 10 µM)?
Its viability, T/C is 3.49%.

And the viability, T/C (second compound 0.0316 µM, first compound 0.0316 µM)?
Its viability, T/C is 16.7%.

And the viability, T/C (second compound 0.0316 µM, first compound 0.1 µM)?
The viability, T/C was 17.2%.

And the viability, T/C (second compound 0.0316 µM, first compound 0.316 µM)?
Its viability, T/C is 13.9%.

What about the viability, T/C (second compound 0.0316 µM, first compound 1 µM) of the same molecule?
Its viability, T/C is 16.9%.

What about the viability, T/C (second compound 0.0316 µM, first compound 3.16 µM) of the same molecule?
The viability, T/C was 16.6%.

And the viability, T/C (second compound 0.0316 µM, first compound 10 µM)?
The viability, T/C was 1.53%.

And the viability, T/C (second compound 0.1 µM, first compound 0.0316 µM)?
The viability, T/C was 12.7%.

And the viability, T/C (second compound 0.1 µM, first compound 0.1 µM)?
Its viability, T/C is 10.7%.

And the viability, T/C (second compound 0.1 µM, first compound 0.316 µM)?
Its viability, T/C is 12.4%.

And the viability, T/C (second compound 0.1 µM, first compound 1 µM)?
The viability, T/C was 10.1%.

What about the viability, T/C (second compound 0.1 µM, first compound 3.16 µM) of the same molecule?
The viability, T/C was 8.84%.

What about the viability, T/C (second compound 0.1 µM, first compound 10 µM) of the same molecule?
The viability, T/C was 1.32%.

And the viability, T/C (second compound 0.316 µM, first compound 0.0316 µM)?
The viability, T/C was 5.48%.

And the viability, T/C (second compound 0.316 µM, first compound 0.1 µM)?
The viability, T/C was 4.79%.

What about the viability, T/C (second compound 0.316 µM, first compound 0.316 µM) of the same molecule?
The viability, T/C was 5.47%.

What about the viability, T/C (second compound 0.316 µM, first compound 1 µM) of the same molecule?
Its viability, T/C is 6.03%.

And the viability, T/C (second compound 0.316 µM, first compound 3.16 µM)?
The viability, T/C was 3.06%.

And the viability, T/C (second compound 0.316 µM, first compound 10 µM)?
The viability, T/C was 1.28%.

What about the viability, T/C (second compound 1 µM, first compound 0.0316 µM) of the same molecule?
The viability, T/C was 1.83%.

And the viability, T/C (second compound 1 µM, first compound 0.1 µM)?
The viability, T/C was 2.45%.

What about the viability, T/C (second compound 1 µM, first compound 0.316 µM) of the same molecule?
The viability, T/C was 2.02%.

And the viability, T/C (second compound 1 µM, first compound 1 µM)?
The viability, T/C was 2.08%.

What about the viability, T/C (second compound 1 µM, first compound 3.16 µM) of the same molecule?
The viability, T/C was 1.22%.

What about the viability, T/C (second compound 1 µM, first compound 10 µM) of the same molecule?
Its viability, T/C is 1.25%.
